Results on 20 compounds are retold here after patent publication US8853246B2 (Dow AgroSciences LLC, priority 2009, dated 2014).

SMILES strings stand for the structures. Where two headings read alike, the source gives them in different places.

Assay [1] deals with Green Peach Aphid (Myzus Persicae). Kind of assay: Insecticidal test for green peach aphid in foliar spray assay (col. MYZUPE). The format is in vivo. Conditions: for pest or weed control at 200 ppm: Myzus persicae, 72 h, read-out: MYZUPE 200 ppm (Corrected % Control, rating). Summed up:
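Corrected % control derives from microscope counts of live aphids per plant, treated against diluent-only checks, 3 days after foliar spraying at ~25 °C and 40% RH. Test solution was 200 ppm in 0.025% aqueous Tween 20, applied to both leaf sides of infested cabbage seedlings, four pots each.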

The test system of assay [2] is Sweetpotato Whitefly-Crawler (Bemisia Tabaci). In words: Insecticidal test for sweetpotato whitefly-crawler in foliar spray assay (col. BEMITA). Conditions: for pest or weed control at 200 ppm: Bemisia tabaci, read-out: BEMITA 200 ppm (Corrected % Control, rating). It counts as in vivo. Summed up:
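Percent control, Abbott-corrected against diluent-sprayed plants, from microscope counts of live nymphs 8-9 days after treatment. Test solution at 200 ppm in 0.025% aqueous Tween 20 applied to both leaf sides of egg-infested cotton after a 5-6 day hatch period (82° F, 50% RH).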

With `CCN(C(=O)c1cccnc1)c1sc(-c2cccnc2)nc1Cl` [Compound 571], the pest or weed control at 200 ppm in assay [1] (Abbott's correction formula) is 80 to 100%; in assay [2] (Abbott's correction formula) it was less than 80%.

In the case of `CCN(C(=O)CCSC(C)C)c1sc(-c2cccnc2)nc1C` [Compound 323], the results for the pest or weed control at 200 ppm in assay [1] (green peach aphid) and in assay [2] (sweetpotato whitefly-crawler) were 80 to 100% and less than 80%, respectively.

Regarding `CN(C(=O)CC[S+](C)[O-])c1sc(-c2ccc(F)nc2)nc1Cl` (stereo not shown) [Compound 469], the pest or weed control at 200 ppm was 80 to 100% in assay [1] (Abbott's correction formula) and less than 80% in assay [2] (Abbott's correction formula).

Consider `Cc1nc(-c2cccnc2)sc1N(C)C(=O)CNC(=O)OC(C)(C)C` [Compound 276], for which the pest or weed control at 200 ppm was 80 to 100% in assay [1] (green peach aphid) and less than 80% in assay [2] (sweetpotato whitefly-crawler).

Turning to `CCN(C(=O)c1snnc1C)c1sc(-c2cccnc2)nc1Cl` [Compound 556], the pest or weed control at 200 ppm in assay [1] (Abbott's correction formula) was 80 to 100%; in assay [2] (Abbott's correction formula) it was less than 80%.

`CCOC(=O)c1cncc(-c2nc(C)c(N(C(=O)OC(C)(C)C)C(=O)C(C)CSC)s2)c1` (stereo not shown) [Compound 155]: the pest or weed control at 200 ppm in assay [1] (green peach aphid) and in assay [2] (sweetpotato whitefly-crawler) was less than 80% in each case.

For `Cc1nc(-c2cccnc2)sc1N(C)C(=O)c1cccc(SC(F)F)c1` [Compound 397], the pest or weed control at 200 ppm in assay [1] (green peach aphid) and in assay [2] (sweetpotato whitefly-crawler) was 80 to 100% each time.

In the case of `CSCCC(=O)N(C)c1sc(-c2cccnc2)nc1Cl` [Compound 66, N-(4-chloro-2-pyridin-3-yl-thiazol-5-yl)-N-methyl-3-methylsulfanyl-propionamide], the pest or weed control at 200 ppm in assay [1] (green peach aphid) and in assay [2] (sweetpotato whitefly-crawler) was 80 to 100% each time.

Turning to `CCC(C)C(=O)N(CC)c1sc(-c2cccnc2)nc1Cl` (stereo not shown) [Compound 531], the pest or weed control at 200 ppm in assay [1] (Abbott's correction formula) and in assay [2] (Abbott's correction formula) was 80 to 100% throughout.

Consider `CSCCC(=O)N(C(=O)CCSC)c1sc(-c2cncc(F)c2)nc1C` [Compound 185], for which the pest or weed control at 200 ppm in assay [1] (green peach aphid) and in assay [2] (sweetpotato whitefly-crawler) was 80 to 100% throughout.

Regarding `C=CCSCC(C)C(=O)Nc1sc(-c2cccnc2)nc1C` (stereo not shown) [Compound 224], the pest or weed control at 200 ppm in assay [1] (green peach aphid) and in assay [2] (sweetpotato whitefly-crawler) was 80 to 100% throughout.

Regarding `CCN(C(=O)c1ccccn1)c1sc(-c2cccnc2)nc1Cl` [Compound 574], the pest or weed control at 200 ppm in assay [1] (Abbott's correction formula) was 80 to 100%; in assay [2] (Abbott's correction formula) it was less than 80%.

Consider `Cc1nc(-c2cccnc2)sc1N(C)C(=O)c1ccc(=O)n(C)n1` [Compound 404], for which the “MYZUPE 200 ppm (Corrected % Control, rating)” value in assay [1] (green peach aphid) is “A (80-100)”. For the same compound, in assay [2] (sweetpotato whitefly-crawler), the “BEMITA 200 ppm (Corrected % Control, rating)” value is “B (Less than 80)”.

For the compound `CSCC(C)(C)C(=O)N(C)c1sc(-c2cccnc2)nc1C(F)(F)F` [Compound 45], the pest or weed control at 200 ppm in assay [1] (green peach aphid) is less than 80%; in assay [2] (sweetpotato whitefly-crawler), 80 to 100%.

For `CCN(C(=O)CCSC)c1sc(-c2cccnc2)nc1Cl` [Compound 313, N-(4-chloro-2-pyridin-3-yl-thiazol-5-yl)-N-ethyl-3-methylsulfanyl-propionamide], the pest or weed control at 200 ppm in assay [1] (green peach aphid) and in assay [2] (sweetpotato whitefly-crawler) was 80 to 100% in each case.

In the case of `CSCC(C)C(=O)Nc1sc(-c2cccnc2)nc1C(F)(F)F` (stereo not shown) [Compound 134], the values for the pest or weed control at 200 ppm in assay [1] (green peach aphid) and in assay [2] (sweetpotato whitefly-crawler) were 80 to 100% and less than 80%, respectively.

As for `CCO[C@@H]1[C@@H](OC)[C@H](C)OC(OC(=O)Nc2sc(-c3cccnc3)nc2C)[C@@H]1OC` (mixture of isomers) [Compound 182], the pest or weed control at 200 ppm in assay [1] (green peach aphid) is 80 to 100%; in assay [2] (sweetpotato whitefly-crawler), less than 80%.

With `Cc1nc(-c2cccnc2)sc1N(CC(C)C)C(=O)OC(C)(C)C` [Compound 14, Isobutyl-(4-methyl-2-pyridin-3-yl-thiazol-5-yl)-carbamic acid tert-butyl ester], the figures for the pest or weed control at 200 ppm in assay [1] (green peach aphid) and in assay [2] (sweetpotato whitefly-crawler) were less than 80% and 80 to 100%, respectively.

For `CSCCC(=O)N(C)c1sc(-c2cncnc2)nc1Cl` [Compound 509], the pest or weed control at 200 ppm in assay [1] (Abbott's correction formula) and in assay [2] (Abbott's correction formula) was 80 to 100% in each case.

Consider `CC(CC(=O)N(C)c1sc(-c2cccnc2)nc1Br)[S+](C)[O-]` (stereo not shown) [Compound 504], for which the pest or weed control at 200 ppm in assay [1] (Abbott's correction formula) and in assay [2] (Abbott's correction formula) was 80 to 100% in each case.
